Experimental data taken from patent publication US11219670B2, “Targeting CAPN9/CAPNS2 activity as a therapeutic strategy for the treatment of myofibroblast differentiation and associated pathologies” (The Johns Hopkins University, priority 2014, dated 2022).
Where a SMILES comes first, the peptide text is derived from it. The star is where a group is joined. Cbz = O=C(OCc1ccccc1)*

Key:
[1] = tested on: Primary Normal Human Lung Fibroblasts (NHLF); assay: TGFβ1-induced FMT in NHLF cells (αSMA western blot); type: cell-based
Text: Resident fibroblasts have also been described to undergo transformation in the presence of high TGFβ. Using Primary Normal Human Lung Fibroblasts (NHLF), it was shown that treatment with calpain inhibitor MDL-28170 (FIG. 8A and FIG. 8B) or siRNA mediated knockdown of CAPNS2 (FIG. 8C) can inhibit TGFβ1-induced FMT as measured by αSMA.

NMuMG cells [2] = assay: TGFβ1-induced EpMT in NMuMG cells (αSMA western blot, qPCR, immunofluorescence); type: cell-based, Mouse
Protocol: (§1) (FIG. 1B; Levels were normalized to the 72 h TGFβ1 only treated sample for each blot. Students t-test *p<0.05, **p<0.01, † p<0.005, †† p<0.001). […] (FIG. 1H; Levels were normalized to the 72 h TGFβ1 only treated sample for each blot. Students t-test *p<0.05, **p<0.01, † p<0.005, †† p<0.001). FIG. 1G and FIG. 1H show the small molecule […] SB431542 suppressed TGFβ-induced calpain activity (as measured by cleavage of Filamin A, a known calpain substrate) and TGFβ-induced phosphorylation of SMAD2, as measured by western blot (FIG. 1H) and quantified western blot data done in biological replicates (FIG. 1H; Levels were normalized to the 72 h TGFβ1 only treated sample for each blot. Student's t-test *p<0.05, **p<0.01, † p<0.005, †† p<0.001).). […] NMuMG cells pretreated with TGFβ1 for 72 hours to induce EMT, and then treated with calpain inhibitor MDL-28170 while in the continued presence of TGFβ1 for an additional 48 h or 72 h post-induction, can revert to a more epithelial phenotype as assessed by αSMA expression by western blot (FIG. 1I) and quantified western blot data done in biological replicates (FIG. 1J; Levels were normalized to TGFβ1 only treated samples within each time point. Students t-test *p<0.05).
Calpain inhibition was also found to suppress TGFβ-induced expression of genes commonly and functionally associated with fibrosis, such as collagen 1A1, vimentin and matrix metalloproteinase 2/9 (FIG. 1C). A profound decrease in E-cadherin, a cell surface protein highly expressed by epithelial cells, was observed by immunofluorescence upon stimulation with TGFβ but was prevented by treatment with calpain inhibitor MDL-28170 (FIG. 1D). […] (FIG. 1F). […]

MDCK cells = assay: TGFβ-induced EpMT in MDCK cells (αSMA western blot); type: cell-based, Canine
[3] = tested on: calpain activity (cleavage of Filamin A); assay: TGFβ-induced calpain activity in NMuMG cells (cleavage of Filamin A, western blot); type: cell-based, Mouse
Protocol: (§2) (FIG. 1B; Levels were normalized to the 72 h TGFβ1 only treated sample for each blot. Students t-test *p<0.05, **p<0.01, † p<0.005, †† p<0.001). […] (FIG. 1H; Levels were normalized to the 72 h TGFβ1 only treated sample for each blot. Students t-test *p<0.05, **p<0.01, † p<0.005, †† p<0.001).

[4] = target: T1, Human recombinant mini-CAPN9 (Homo sapiens, UniProt O14815); assay: Biochemical assay for calpain 9 inhibition (FRET peptide substrate, FLIPR); settings: IC50 by 4 parameter logistic fitting; 10 min preincubation; ambient temperature
T1 construct: made in house; host or cells: E. coli
T1 sequence (O14815 42-337 limits assumed): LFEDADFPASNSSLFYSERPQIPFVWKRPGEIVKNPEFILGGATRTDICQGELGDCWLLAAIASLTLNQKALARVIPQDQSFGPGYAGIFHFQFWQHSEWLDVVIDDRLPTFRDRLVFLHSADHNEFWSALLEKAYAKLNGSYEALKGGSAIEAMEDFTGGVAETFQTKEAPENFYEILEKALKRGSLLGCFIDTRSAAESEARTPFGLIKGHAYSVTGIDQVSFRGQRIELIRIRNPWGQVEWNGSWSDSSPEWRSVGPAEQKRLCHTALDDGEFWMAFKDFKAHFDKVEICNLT
Protocol: Human recombinant mini-CAPN9 was expressed in E. coli and purified as described in Davis, T. L., et al. (2007) J Mol Biol 366(1): 216-229.
All enzyme reactions are run at ambient temperature (˜25° C.) in black 384 well assay plates. Inhibitors solutions in DMSO are typically semi-log serially diluted prior to further dilution in assay buffer (Tris-HCl 20 mM, KCl 100 mM, BSA 0.1%, 1 mM DTT). Calpain enzyme stocks are diluted in assay buffer without Ca (II) just prior to use (1 μM) and incubated with serially diluted test compounds at 2× concentrations in the assay plate for 10 min.
After the compound preincubation, the FLIPR liquid handler is used to initiate the reaction by adding a 2× mix of substrate (1 μM Calpain FRET peptide substrate (5-FAM/QXL 520) Anaspec (Catalog# AS-72149)) and Ca (II) (10 mM). Reactions are measured using a FLIPR Tetra reader (Molecular Devices Inc).
Slopes (reaction rates) are calculated within the 0-2 min interval using the ScreenWorks software (Molecular Devices Inc). Slopes are plotted versus test compound concentration to obtain dose-response curves. IC50 values are obtained using 4 parameter logistic fitting.

phosphorylation of SMAD2 = assay: TGFβ-induced phosphorylation of SMAD2 in NMuMG cells (western blot); type: cell-based, Mouse
Protocol: as §2

NMuMG cells [5] = assay: Reversal of pre-established TGFβ-induced myofibroblast differentiation in NMuMG cells (mesenchymal-to-epithelial transition); type: cell-based, Mouse; settings: NMuMG pretreated with TGFβ 72 h, 48 h and 72 h post-induction
Protocol: as §1
If TGFβ-induced calpain activity is necessary to maintain myofibroblast differentiation, suppression of calpain activity after pre-establishment of myofibroblast differentiation should be sufficient for mesenchymal-to-epithelial transition and provide evidence supporting reversal of a disease state.

## CC(C)[C@H](NC(=O)OCc1ccccc1)C(=O)N[C@H](C=O)Cc1ccccc1 [MDL-28170] (Cbz-Val-Phe-aldehyde)
[1]
  TGFβ1-induced FMT as measured by αSMA: can inhibit
NMuMG cells [2]; immunofluorescence
  TGFβ1-induced reorganization of the actin cytoskeleton to stress fibers: blocked
  TGFβ-induced decrease in E-cadherin: prevented
NMuMG cells [2]; quantitative PCR
  TGFβ-induced expression of genes associated with myofibroblast differentiation and/or fibrosis (Col1A1, Vimentin, MMP2, MMP9): suppresses
NMuMG cells [2]; western blot
  TGFβ1-induced EpMT as measured by αSMA expression: antagonize TGFβ1-induced EpMT
MDCK cells
  TGFβ-induced EpMT as measured from αSMA expression: suppresses TGFβ-induced EpMT in MDCK cells
[3]
  TGFβ-induced calpain activity (cleavage of Filamin A): suppressed
[4]
  IC50: 1.61 µM
Phosphorylation of SMAD2
  TGFβ-induced phosphorylation of SMAD2: without significantly affecting
NMuMG cells [5]
  E-cadherin expression after pre-established myofibroblast differentiation: reacquired expression of the epithelial marker E-cadherin
  actin cytoskeleton organisation after pre-established myofibroblast differentiation: reorganized their actin cytoskeleton from stress fibers to cortical actin
NMuMG cells [5]; continued TGFβ1
  αSMA expression after pre-established myofibroblast differentiation: decreased expression of αSMA
